From ChEMBL document CHEMBL3232853, “Alkylsulfone-containing trisubstituted cyclohexanes as potent and bioavailable chemokine receptor 2 (CCR2) antagonists” (Bioorg Med Chem Lett, 2014)
Active and inactive are the calls of the source. No cut-off for these calls is given here.

Legend:
Rattus norvegicus [1] = organism: Rattus norvegicus; assay: Inhibition of rat sodium channel site 2 at 10 uM relative to control
[2] = target: C-C chemokine receptor type 2 (Homo sapiens, UniProt P41597); assay: Displacement of [125I]-labeled human MCP1 from CCR2 in human PBMC
Chain of C-C chemokine receptor type 2 (P41597 whole entry): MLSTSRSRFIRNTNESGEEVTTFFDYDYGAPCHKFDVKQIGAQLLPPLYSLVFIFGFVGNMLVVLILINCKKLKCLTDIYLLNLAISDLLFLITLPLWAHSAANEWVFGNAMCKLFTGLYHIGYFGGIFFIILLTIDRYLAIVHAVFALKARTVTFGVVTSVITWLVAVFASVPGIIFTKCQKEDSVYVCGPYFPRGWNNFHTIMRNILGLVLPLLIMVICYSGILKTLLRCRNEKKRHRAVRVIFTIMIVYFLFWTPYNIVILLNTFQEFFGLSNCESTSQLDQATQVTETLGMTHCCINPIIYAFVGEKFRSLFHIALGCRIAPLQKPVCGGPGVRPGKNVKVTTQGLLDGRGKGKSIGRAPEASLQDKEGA

[3] = target: Voltage-gated inwardly rectifying potassium channel KCNH2 (Homo sapiens, UniProt Q12809); assay: Inhibition of human ERG by FLIPR assay
Chain of Voltage-gated inwardly rectifying potassium channel KCNH2 (Q12809 whole entry): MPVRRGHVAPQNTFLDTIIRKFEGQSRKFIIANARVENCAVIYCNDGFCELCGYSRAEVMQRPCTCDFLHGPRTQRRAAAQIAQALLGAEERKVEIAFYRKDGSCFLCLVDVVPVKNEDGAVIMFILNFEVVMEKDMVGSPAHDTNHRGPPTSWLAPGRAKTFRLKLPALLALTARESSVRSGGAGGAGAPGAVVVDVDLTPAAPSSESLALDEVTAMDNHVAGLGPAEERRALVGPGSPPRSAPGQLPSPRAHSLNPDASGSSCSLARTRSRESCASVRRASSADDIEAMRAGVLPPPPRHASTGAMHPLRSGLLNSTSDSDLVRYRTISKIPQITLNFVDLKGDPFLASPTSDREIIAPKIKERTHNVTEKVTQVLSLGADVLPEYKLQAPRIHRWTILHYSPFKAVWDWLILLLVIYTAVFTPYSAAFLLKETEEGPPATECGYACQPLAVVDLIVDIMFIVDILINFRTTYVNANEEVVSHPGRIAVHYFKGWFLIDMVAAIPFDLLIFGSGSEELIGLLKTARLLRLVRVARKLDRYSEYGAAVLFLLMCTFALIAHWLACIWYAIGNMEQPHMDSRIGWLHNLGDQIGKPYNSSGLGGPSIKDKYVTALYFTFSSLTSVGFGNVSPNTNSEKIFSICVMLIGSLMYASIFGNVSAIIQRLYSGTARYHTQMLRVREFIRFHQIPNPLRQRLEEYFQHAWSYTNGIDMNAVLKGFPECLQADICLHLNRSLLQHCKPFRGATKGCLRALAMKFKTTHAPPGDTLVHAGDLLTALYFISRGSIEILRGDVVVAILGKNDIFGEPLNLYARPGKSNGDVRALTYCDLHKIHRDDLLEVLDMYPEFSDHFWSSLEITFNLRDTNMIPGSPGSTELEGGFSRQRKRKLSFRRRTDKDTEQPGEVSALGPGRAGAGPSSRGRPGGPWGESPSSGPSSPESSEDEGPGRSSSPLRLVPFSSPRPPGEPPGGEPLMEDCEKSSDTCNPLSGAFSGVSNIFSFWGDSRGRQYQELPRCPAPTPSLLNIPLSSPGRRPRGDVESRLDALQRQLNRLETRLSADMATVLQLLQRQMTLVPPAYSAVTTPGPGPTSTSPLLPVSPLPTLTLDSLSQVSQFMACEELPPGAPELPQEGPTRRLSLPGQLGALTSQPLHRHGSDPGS

[4] = Clearance in rat at 6 mg/kg, iv; assay type: ADME, organism-based; parameters: dose 6 mg/kg, route intravenous; conditions: in vivo
Homo sapiens = organism: Homo sapiens; assay: Inhibition of sodium channel (unknown origin) at 10 uM at 4 Hz by patch clamp assay relative to control
[5] = Clearance in cynomolgus monkey at 1 mg/kg, iv; assay type: ADME, organism-based, Macaca fascicularis; parameters: dose 1 mg/kg, route intravenous; conditions: in vivo
Cynomolgus monkey [6] = assay: Oral bioavailability in cynomolgus monkey at 14 mg/kg; assay type: ADME, organism-based, Macaca fascicularis; conditions: in vivo
Canis familiaris [7] = assay: Oral bioavailability in dog at 14 mg/kg; assay type: ADME, organism-based, Canis lupus familiaris; conditions: in vivo
Mus musculus [8] = assay: Antiinflammatory activity in thioglycollate-induced human CCR2 knock-in mouse peritonitis model assessed as reduction of Ly6C+F4/80+ cell numbers in peritoneal cavity at 50 mg/kg, po administered 1 hr prior to thioglycollate challenge measured after 6 hrs; assay type: functional, organism-based; parameters: dose 50 mg/kg
[9] = Clearance in mouse at 3 mg/kg, iv; assay type: ADME, organism-based; parameters: dose 3 mg/kg, route intravenous; conditions: in vivo
Liver microsome = conditions: human, microsomes, 10 min
Description: Metabolic stability in human liver microsomes assessed as compound remaining after 10 mins

Rattus norvegicus [10] = assay: Oral bioavailability in rat at 72 mg/kg; assay type: ADME, organism-based; conditions: in vivo
Mus musculus [11] = assay: Oral bioavailability in mouse at 54 mg/kg; assay type: ADME, organism-based; conditions: in vivo
Mus musculus [12] = assay: Antiinflammatory activity in thioglycollate-induced human CCR2 knock-in mouse peritonitis model assessed as reduction of Ly6C+F4/80+ cell numbers in peripheral blood at 50 mg/kg, po administered 1 hr prior to thioglycollate challenge measured after 6 hrs; assay type: functional, organism-based; parameters: dose 50 mg/kg
[13] = Permeability across apical to basolateral side in human Caco2 cells; assay type: ADME, cell-based; conditions: Caco-2, read-out: permeability
[14] = Clearance in dog at 1 mg/kg, iv; assay type: ADME, organism-based, Canis lupus familiaris; parameters: dose 1 mg/kg, route intravenous; conditions: in vivo
[15] = Antagonist activity at CCR2 in human monocytes assessed as reduction of chemotaxis in presence of […]
Mus musculus [16] = assay: Oral bioavailability in mouse at 100 mg/kg; assay type: ADME, organism-based; conditions: in vivo
Mus musculus [17] = organism: Mus musculus; assay: Antiinflammatory activity in thioglycollate-induced wild type mouse peritonitis model; assay type: functional, organism-based
[18] = Clearance in mouse at 5 mg/kg, iv; assay type: ADME, organism-based; parameters: dose 5 mg/kg, route intravenous; conditions: in vivo
Rattus norvegicus [19] = assay: Oral bioavailability in rat at 43 mg/kg; assay type: ADME, organism-based; conditions: in vivo
Canis familiaris [20] = assay: Oral bioavailability in dog at 10 mg/kg; assay type: ADME, organism-based, Canis lupus familiaris; conditions: in vivo
Cynomolgus monkey [21] = assay: Oral bioavailability in cynomolgus monkey at 10 mg/kg; assay type: ADME, organism-based, Macaca fascicularis; conditions: in vivo
Mus musculus [22] = assay: Antiinflammatory activity in thioglycollate-induced human CCR2 knock-in mouse peritonitis model assessed as reduction of Ly6C+F4/80+ cell number peritoneal cavity at 100 mg/kg, po administered 1 hr prior to thioglycollate challenge measured after 6 hrs; assay type: functional, organism-based; parameters: dose 100 mg/kg
[23] = Clearance in rat at 4 mg/kg, iv; assay type: ADME, organism-based; parameters: dose 4 mg/kg, route intravenous; conditions: in vivo
Mus musculus [24] = assay: Antiinflammatory activity in thioglycollate-induced human CCR2 knock-in mouse peritonitis model assessed as reduction of Ly6C+F4/80+ cell numbers in peripheral blood at 100 mg/kg, po administered 1 hr prior to thioglycollate challenge measured after 6 hrs; assay type: functional, organism-based; parameters: dose 100 mg/kg

| Compound | inhibition (Rattus norvegicus [1]) | IC50 [2] | Stability (Liver microsome) | Papp A→B [13] | further results |
| --- | --- | --- | --- | --- | --- |
| CC(C)N(C)[C@@H]1CC[C@H](N2CC[C@H](NC(=O)c3cccc(OC(F)(F)F)c3)C2=O)[C@H](CS(C)(=O)=O)C1 | 32% | 5 nM | – | – | – |
| CC(C)N(C)[C@@H]1CC[C@H](N2CC[C@H](NC(=O)c3cc(F)cc(C(F)(F)F)c3)C2=O)[C@H](CS(=O)(=O)C(C)(C)C)C1 | 48% | 1.3 nM | – | – | IC50 [3]: > 80000 nM |
| CC(C)N(C)[C@@H]1CC[C@H](N2CC[C@H](NC(=O)c3cccc(C(C)(C)C)c3)C2=O)[C@H](CS(=O)(=O)C(C)C)C1 | – | 0.5 nM | – | – | – |
| CC(C)N(C)[C@@H]1CC[C@H](N2CC[C@H](NC(=O)c3cccc(OC(F)(F)F)c3)C2=O)[C@H](CS(=O)(=O)C(C)(C)C)C1 | 61% | 1.2 nM | – | – | IC50 [3]: > 80000 nM |
| CCS(=O)(=O)C[C@@H]1C[C@H](N(C)C(C)C)CC[C@@H]1N1CC[C@H](NC(=O)c2cccc(-c3ccccc3)c2)C1=O | – | 1.1 nM | – | – | IC50 [3]: 60000 nM |
| CC(C)N(C)[C@@H]1CC[C@H](N2CC[C@H](NC(=O)c3cccc(C(F)(F)F)c3)C2=O)[C@H](CS(C)(=O)=O)C1 | 3% | 1.8 nM | 100% | < 1.5 ×10⁻⁶ cm/s | clearance [4]: 42 mL/min/kg; inhibition (Homo sapiens): 22%; clearance [5]: 14 mL/min/kg; F (Cynomolgus monkey [6]): 9%; F (Canis familiaris [7]): 51%; Activity (Mus musculus [8]): Active; clearance [9]: 70 mL/min/kg; F (Rattus norvegicus [10]): 1%; F (Mus musculus [11]): 16%; Activity (Mus musculus [12]): Active; clearance [14]: 3 mL/min/kg |
| CC(C)N(C)[C@@H]1CC[C@H](N2CC[C@H](NC(=O)c3cccc(C(F)(F)F)c3)C2=O)[C@H](CS(=O)(=O)c2ccccc2)C1 | – | – | 88% | < 1.5 ×10⁻⁶ cm/s | IC50 [15]: 0.5 nM |
| CCS(=O)(=O)C[C@@H]1C[C@H](N(C)C(C)C)CC[C@@H]1N1CC[C@H](NC(=O)c2cccc(C(F)(F)F)c2)C1=O | 26% | 1.2 nM | 100% | < 1.5 ×10⁻⁶ cm/s | inhibition (Homo sapiens): 4.2% |
| CC(C)N(C)[C@@H]1CC[C@H](N2CC[C@H](NC(=O)c3cccc(C(F)(F)F)n3)C2=O)[C@H](CS(C)(=O)=O)C1 | 0% | 2.2 nM | – | – | IC50 [3]: > 80000 nM |
| CC(C)N(C)[C@@H]1CC[C@H](N2CC[C@H](NC(=O)c3cccc(C(F)(F)F)c3)C2=O)[C@H](CS(=O)(=O)C(C)(C)C)C1 | 48% | 0.96 nM | 100% | 3 ×10⁻⁶ cm/s | F (Mus musculus [16]): 13%; Activity (Mus musculus [17]): inactive; inhibition (Homo sapiens): 19%; clearance [5]: 12 mL/min/kg; clearance [18]: 25 mL/min/kg; F (Rattus norvegicus [19]): 14%; F (Canis familiaris [20]): 74%; F (Cynomolgus monkey [21]): 26%; Activity (Mus musculus [22]): Active; clearance [23]: 54 mL/min/kg; Activity (Mus musculus [24]): Active; clearance [14]: 5 mL/min/kg |
| Cc1ccc(C(=O)N[C@H]2CCN([C@H]3CC[C@@H](N(C)C(C)C)C[C@H]3CS(C)(=O)=O)C2=O)cc1C(F)(F)F | 36% | 5.2 nM | – | – | – |
| CC(C)N(C)[C@@H]1CC[C@H](N2CC[C@H](NC(=O)c3cccc(C(C)(C)C)c3)C2=O)[C@H](CS(C)(=O)=O)C1 | – | 1.2 nM | – | – | – |
| CC(C)N(C)[C@@H]1CC[C@H](N2CC[C@H](NC(=O)c3cccc(C(F)(F)F)c3)C2=O)[C@H](CS(=O)(=O)C(C)C)C1 | – | 0.34 nM | 100% | < 1.5 ×10⁻⁶ cm/s | – |
| CC(C)N(C)[C@@H]1CC[C@H](N2CC[C@H](NC(=O)c3cccc(C(C)(C)C)n3)C2=O)[C@H](CS(C)(=O)=O)C1 | 46% | 0.7 nM | – | – | – |
